Measured values as given in patent US12714708B2, “Compounds with anti-tumor activity against cancer cells bearing HER2 exon 19 mutations” (Board of Regents, The University of Texas System, priority 2019, dated 2026).

How the values were obtained:
[1] = tested on: Ba/F3 HER2 L755P mutant cells; experiment: Cell Titer Glo cell viability, Ba/F3 cells expressing HER2 L755P; assay type: cell-based; settings: for inhibition of cell viability: Ba/F3 cells expressing HER2 L755P protein; for IC50: Mus musculus, BaF3, Ba/F3 HER2 L755P mutant cells
Protocol: Ba/F3 cells expressing exon 19 point mutation L755P were generated.
Cell line generation and IL-3 deprivation: Ba/F3 cell line, was cultured in complete RPMI-1640 (R8758; Sigma Life Science) media supplemented with L-glutamine, 10% heat inactivated FBS (Gibco), 1% penicillin/streptomycin (Sigma Life Science), and 10 ng/ml mouse IL-3 (R&D systems) under sterile conditions. Stable cell lines were generated by retroviral transduction of Ba/F3 cell line for 12 hours. Retroviruses were generated by transfecting pBabe-Puro based vectors into the Phoenix 293T ampho packing cell line (Orbigen) using Lipofectamine 2000 (Invitrogen). 72 hours after transduction, 2 μg/ml puromycin (Invitrogen) was added to the media. After 5 days of selection, cells were stained with FITC-HER2 (Biolegend) and sorted via FACS. Cell lines were then grown in the absence of IL-3 for 15 days and cell viability was determined every 3 days using the Cell Titer Glo assay (Progema). Resulting stable cell lines were maintained in complete RPMI-1640 media described above without IL-3. […] To generate HER2 […] cell lines, cells were transduced with c.2264T>C (created from Bioinnovatise from pBabe-puro HER WT from Addgene (#40978)).
(§1) Cell viability assay and IC50 estimation: Cell viability was determined using the Cell Titer Glo assay (Promega) as previously described (Robichaux et al., 2018). Briefly, 2000-3000 cells per well were plated in 384-well plates (Greiner Bio-One) in technical triplicate. Cells were treated with seven different concentrations of tyrosine kinase inhibitors or vehicle alone at a final volume of 40 μL per well. After 3 days, 11 μL of Cell Titer Glo was added to each well. Plates were shaken for 15 minutes, and bioluminescence was determined using a FLUOstar OPTIMA multi-mode micro-plate reader (BMG LABTECH). Bioluminescence values were normalized to DMSO treated cells, and normalized values were plotted in GraphPad Prism using non-linear regression fit to normalized data with a variable slope. IC50 values were calculated by GraphPad Prism at 50% inhibition.

[2] = tested on: HER2 exon 19 mutant Ba/F3 cell lines; experiment: Cell Titer Glo cell viability, Ba/F3 cell lines expressing HER2 exon 19 mutations; assay type: cell-based
Protocol: In addition, several other HER2 exon 19 mutations including D769Y, D769N, D769H, L755S, and R678Q were tested for their sensitivity to different TKIs including poziotinib.
Cell viability of stable Ba/F3 cell lines expressing HER2 exon 19 mutations grown in IL-3 free conditions was measured for 14 days. Cell viability was determined every 3 days by the Cell Titer Glo assay (FIG. 4). […] Average IC50 values of Ba/F3 cells expressing L755S or L755P with indicated inhibitors were measured (FIG. 5C).
Cell line generation and IL-3 deprivation: Ba/F3 cell line, was cultured in complete RPMI-1640 (R8758; Sigma Life Science) media supplemented with L-glutamine, 10% heat inactivated FBS (Gibco), 1% penicillin/streptomycin (Sigma Life Science), and 10 ng/ml mouse IL-3 (R&D systems) under sterile conditions. Stable cell lines were generated by retroviral transduction of Ba/F3 cell line for 12 hours. Retroviruses were generated by transfecting pBabe-Puro based vectors into the Phoenix 293T ampho packing cell line (Orbigen) using Lipofectamine 2000 (Invitrogen). 72 hours after transduction, 2 μg/ml puromycin (Invitrogen) was added to the media. After 5 days of selection, cells were stained with FITC-HER2 (Biolegend) and sorted via FACS. Cell lines were then grown in the absence of IL-3 for 15 days and cell viability was determined every 3 days using the Cell Titer Glo assay (Progema). Resulting stable cell lines were maintained in complete RPMI-1640 media described above without IL-3. Cell line identity was confirmed by DNA fingerprinting via short tandem repeats using the PowerPlex 1.2 kit (Promega). Fingerprinting results were compared with reference fingerprints maintained by the primary source of the cell line. All cell lines were free of mycoplasma. […]
Cell viability assay and IC50 estimation: Cell viability was determined using the Cell Titer Glo assay (Promega) as previously described (Robichaux et al., 2018). […] Plates were shaken for 15 minutes, and bioluminescence was determined using a FLUOstar OPTIMA multi-mode micro-plate reader (BMG LABTECH). […]

CW-2 colorectal cells = experiment: Cell viability of CW-2 cells treated with inhibitors; assay type: cell-based, human; settings: various concentrations, 72 hours (FIG. 6A)
Protocol: A mouse study was performed with mice inoculated with CW-2 cells treated with poziotinib, afatinib, or neratinib. […] Thus, poziotinib, as well as structurally similar inhibitors, are potent inhibitors of HER2 exon 19 mutations and can be used as therapeutics to overcome de novo drug resistance.
as §1
Human cell lines: MCF10A cells were purchased from ATCC and were cultured in DMEM/F12 media supplemented with 1% penicillin/streptomycin, 5% horse serum (sigma), 20 ng/ml EGF, […] hydrocortisone, and 10 ug/ml insulin. […]

[3] = tested on: CW-2 cells (HER2 L755S) xenografts; experiment: CW-2 cell line xenograft tumor growth study; assay type: in vivo, mice; settings: for Tukey's multiple comparisons test Summary: Poziotinib 5 mg/kg
Protocol: In vivo xenograft studies: CW-2 cell line xenografts were created by injecting 1×10^6 cells in 50% matrigel into 6-week-old female nu/nu nude mice. When tumors reached 350 mm^3 mice were randomized into 4 groups: 20 mg/kg afatinib, 5 mg/kg poziotinib, 30 mg/kg neratinib, or vehicle control (0.5% Methylcellulose, 2% Tween-80 in dH2O). Tumor volumes were measured three times per week. Mice received drug Monday-Friday (5 days per week), but began dosing on Wednesday allowing for a 2-day holiday after the first 3 days of dosing.

[4] = Day 10, vs. Vehicle, Afatinib 20 mg/kg, Neratinib 30 mg/kg, two-way ANOVA of FIG. 6B
[5] = Day 13, vs. Vehicle, Afatinib 20 mg/kg, Neratinib 30 mg/kg, two-way ANOVA of FIG. 6B

Q: Which “inhibition of cell viability” value [1] does the source give for `C=CC(=O)N1CCC(Oc2cc3c(Nc4ccc(Cl)c(Cl)c4F)ncnc3cc2OC)CC1` [poziotinib, 1-[4-[4-(3,4-dichloro-2-fluoroanilino)-7-methoxyquinazolin-6-yl]oxypiperidin-1-yl]prop-2-en-1-one] here?
A: Its value is “inhibition of cell viability”.

Q: What about the IC50 [1] of the same molecule?
A: The IC50 was 3 nM.

Q: What about the “IC50 values as compared to the other inhibitors tested” value ([2]; Ba/F3 cells expressing HER2 exon 19 mutations incl. L755S or L755P, 72 hours of drug treatment) of the same molecule?
A: The value was “lowest IC50 values”.

Q: And the “concentrations inhibiting HER2 exon 19 mutants” value ([2]; HER2 exon 19 mutants)?
A: Its value is “low nanomolar concentrations”.

Q: What about the “inhibition of growth of mutant cells” value ([2]; HER2 exon 19 mutations D769Y, D769N, D769H, L755S, R678Q (FIG. 3)) of the same molecule?
A: Its value is “inhibited the growth of these mutant cells”.

Q: What about the “decrease in cell viability” value (CW-2 colorectal cells) of the same molecule?
A: Its value is “highest decrease in cell viability”.

Q: What about the “Tukey's multiple comparisons test Summary” value ([3]; Day 10, vs. Afatinib (20 mg/kg)) of the same molecule?
A: The value was “ns”.

Q: And the “Tukey's multiple comparisons test Summary” value [3, 4]?
A: Its value is “ns”.

Q: What about the “Tukey's multiple comparisons test Summary” value ([3]; Day 13, vs. Afatinib (20 mg/kg)) of the same molecule?
A: Its value is “ns”.

Q: And the “Tukey's multiple comparisons test Summary” value ([3]; Day 13, vs. Neratinib (30 mg/kg), Afatinib 20 mg/kg)?
A: Its value is “ns”.

Q: What about the “Tukey's multiple comparisons test Summary” value [3, 5] of the same molecule?
A: The value was “ns”.

Q: What about the “Tukey's multiple comparisons test Summary” value ([3]; Day 15, vs. Afatinib (20 mg/kg)) of the same molecule?
A: Its value is “ns”.

Q: And the “Tukey's multiple comparisons test Summary” value ([3]; Day 17, vs. Afatinib (20 mg/kg))?
A: Its value is “ns”.

Q: What about the Tumor growth ([3]; mice inoculated with CW-2 cells, 5 mg/kg (FIG. 6C)) of the same molecule?
A: The Tumor growth was “significantly decreased”.

Q: What does the source list for `CCOc1cc2ncc(C#N)c(Nc3ccc(OCc4ccccn4)c(Cl)c3)c2cc1NC(=O)/C=C/CN(C)C` [neratinib]?
A: Tukey's multiple comparisons test Summary [3, 4]: ns; Tukey's multiple comparisons test Summary [3, 5]: ns; Tukey's multiple comparisons test Summary ([3]; Day 15, vs. Vehicle, Afatinib 20 mg/kg, Neratinib 30 mg/kg, two-way ANOVA of FIG. 6B): ns; Tukey's multiple comparisons test Summary ([3]; Day 17, vs. Vehicle, Afatinib 20 mg/kg, Neratinib 30 mg/kg, two-way ANOVA of FIG. 6B): ns

Q: With `CS(=O)(=O)CCNCc1ccc(-c2ccc3ncnc(Nc4ccc(OCc5cccc(F)c5)c(Cl)c4)c3c2)o1` [lapatinib] as the molecule, how does the “inhibition of cell viability” value [1] read?
A: The value was “failed to inhibit cell viability”.

Q: `CN(C)C/C=C/C(=O)Nc1cc2c(Nc3ccc(F)c(Cl)c3)ncnc2cc1O[C@H]1CCOC1` [afatinib] was tested. Which IC50 [1] did it give?
A: The IC50 was 13 nM.

Q: `Cc1cc(C(=O)Nc2nc3cccc(Cl)c3n2[C@@H]2CCCCN(C(=O)/C=C/CN(C)C)C2)ccn1` [EGF-816] was tested. Which “inhibition of cell viability” value [1] did it give?
A: Its value is “failed to inhibit cell viability”.
